Reference: a compilation of properties of binary mixtures (doi:10.1016/j.molliq.2017.08.014)

Assay: xn = mol fraction of the nth substance listed
Conditions: 101 kPa

CCCCn1cc[n+](C)c1.[Cl][Fe-]([Cl])([Cl])[Cl] + CCOC(C)=O
viscosity [mPa·s]
Conditions | x1 = 0.1002 | x1 = 0.1999 | x1 = 0.3007 | x1 = 0.3999 | x1 = 0.5 | x1 = 0.6001 | x1 = 0.7 | x1 = 0.7973 | x1 = 0.9 | x1 = 1
293.15 K | 1.17 | 2.37 | 4.32 | 7.33 | 11.15 | – | 22.98 | 30.8 | 41.3 | 56.6
298.15 K | 1.09 | 2.19 | 3.92 | 6.53 | 9.78 | 14.09 | 19.72 | – | – | 46
303.15 K | 1.02 | 2.01 | 3.56 | 5.84 | 8.64 | – | 16.92 | – | 28.7 | 37.9
308.15 K | 0.97 | – | 3.26 | – | 7.69 | – | 14.65 | – | 24.4 | –
313.15 K | 0.91 | – | 2.99 | 4.76 | 6.88 | 9.63 | 12.81 | – | 21.04 | 27
318.15 K | 0.86 | 1.66 | – | – | 6.19 | 8.65 | 11.32 | 14.58 | – | 23.24
323.15 K | 0.82 | 1.57 | 2.56 | 3.98 | 5.63 | 7.79 | 10.08 | 12.88 | 16.08 | 20.16

CCOC(C)=O + CCCCn1cc[n+](C)c1.Cl[Fe-](Cl)(Cl)Cl
x2 = 0
Conditions | viscosity [mPa·s]
293.15 K | 0.46
298.15 K | 0.43
303.15 K | 0.41
308.15 K | 0.39
313.15 K | 0.37
318.15 K | 0.35
323.15 K | 0.33
